From US4247632A (Kikkoman Shoyu Co., Ltd., priority 1978, dated 1981)

How the values were obtained:
[1] = test system: methylguanidine-decomposing enzyme; test: Inhibition of the enzyme: residual activity after treatment with inhibitor; type: biochemical, Alcaligenes; settings: for Residual activity of enzyme (%): activity without inhibitor = 100; for Inhibition of the enzyme (in words): conditions and concentrations of Table 1
Experimental: A substrate solution having a methylguanidine sulfate concentration of 100 μg/ml is prepared by dissolving methylguanidine sulfate into 0.05 M sodium carbonate-sodium bicarbonate buffer solution (pH 11.0). […] If a precipitate is formed, the precipitate is removed by centrifugation or filtration. Thus, an enzymatic reaction fluid is obtained.
Then, each 50 μl of the enzymatic reaction fluid or the control is mixed with 1.5 ml of 0.1 mM solution of phenanthraquinone in dimethylformamide and 0.25 ml of 1 M aqueous solution of sodium hydroxide and subjected to reaction at room temperature for 40-50 minutes, and then 0.25 ml of concentrated hydrochloric acid and 2.5 ml of water are added. Then, the relative fluorescence intensities of the resulted reaction mixtures are measured with a fluorophotometer at an exciting wave length of 310 nm and a fluorescence wave length of 390 nm. The decrease in methylguanidine content is calculated from the difference in fluorescence intensities between each reaction mixture for the enzymatic reaction and the control.
In the expression of activity, a quantity of enzyme enough to decompose 1 μ-mole of methylguanidine per 1 minute at 30° C. is defined as one unit.

[2] = test system: methylguanidine-decomposing enzyme; test: Stabilization of the enzyme; type: physicochemical, Alcaligenes; settings: 10% (V/W) of glycerin added
From the text: The enzyme is stabilized by adding 10% (V/W) of glycerin to it.

[3] = test system: methylguanidine-decomposing enzyme; test: Action and substrate specificity of the enzyme; type: biochemical, Alcaligenes
From the text: This enzyme decomposes methylguanidine to form methylamine and urea: [drawing 1]
This enzyme exerts no action upon guanidoacetic acid (glycocyamine) and guanididosuccinic acid.

[4] = 1 mM inhibitor, 30° C., pH 9, 1 hour
[5] = 1 mM inhibitor, 30° C., pH 10, 60 minutes

SMILES	Inhibition of the enzyme (in words) [1]	Action of the enzyme upon the substrate [3]	further results
O[C@H](CS)[C@H](O)CS (racemic) [Dithiothreitol, dithiothreitol]	markedly inhibited		Residual activity of enzyme (%) [1, 4]: 0%
OCCS [2-Mercaptoethanol, 2-mercaptoethanol]	markedly inhibited		Residual activity of enzyme (%) [1, 4]: 0%
O=[N+]([O-])[O-].[Ag+] [AgNO3, silver nitrate]	markedly inhibited		Residual activity of enzyme (%) [1, 5]: 4%
[Cl][Hg][Cl] [HgCl2, mercurie chloride]	markedly inhibited		Residual activity of enzyme (%) [1, 5]: 0%
II [I2, iodine]	markedly inhibited		Residual activity of enzyme (%) ([1]; 1 mM I2, 40° C., pH 7, 1 hour): 0%
OCC(O)CO [glycerin]			Stabilization of the enzyme [2]: stabilized
N=C(N)NC(CC(=O)O)C(=O)O (centres unmarked) [guanididosuccinic acid]		no action	
N=C(N)NCC(=O)O [guanidoacetic acid]		no action	
CNC(=N)N [methylguanidine]		decomposes	
